# Laboratory results from patent publication US10919935B2, “Antimicrobial peptide derived from myxinidin peptide and uses thereof” (INDUSTRY-ACADEMIC COOPERATION FOUNDATION, CHOSUN UNIVERSITY, priority 2015, dated 2021).
# Residues, ends and D or L forms follow the SMILES beside them.
# Columns and labels:
# [1] = system: S. aureus 3709; test: MIC at salt concentration (Example 3); assay type: cell-based, Staphylococcus aureus
# Description: (§1) To compare the antimicrobial activity of the peptide produced by the method of Example 1, the inventors of the present invention measured the minimum growth inhibitory concentration (MIC), which is minimum concentration of the peptide showing no dissociation of bacterial cells, at salt concentration.
# (§2) Specifically, the bacterial strain described in the above Table 2 was cultured in each medium to a mid-log phase. Then, after dilution to bacterial cell concentration of 2×10^5 cells/100 μl, the cells were inoculated to a microtiter plate (NUNC, USA). Thereafter, myxinidin 1, myxinidin 2, or myxinidin 3 peptides which have been synthesized in Example 1 above was diluted, 1/2 times for each, with BSA+150 mM sodium chloride (NaCl) solution, physiological saline (PBS) solution, or 10 mM sodium phosphate (SP) solution in a 96-well plate. After adding the cells to a plate, the cells were cultured for 12 hours at 37° C. By using a microtiter plate reader (Merck Elisa reader, Germany), the absorbance was measured at a wavelength of 600 nm to determine the MIC value of each bacterial strain. As a control group, myxinidin as a mother peptide was subjected to the same processes as above and the MIC value of each bacterial strain was obtained.
# [2] = system: S. aureus 3114; test: MIC at salt concentration (Example 3); assay type: cell-based, Staphylococcus aureus
# Description: as §1, §2
# [3] = system: S. aureus; test: MIC at salt concentration (Example 3); assay type: cell-based, Staphylococcus aureus
# Description: as §1, §2
# [4] = system: Escherichia coli 1229; test: MIC at salt concentration (Example 3); assay type: cell-based
# Description: as §1, §2
# [5] = system: Escherichia coli 1238; test: MIC at salt concentration (Example 3); assay type: cell-based
# Description: as §1, §2
# [6] = system: Escherichia coli; test: MIC at salt concentration (Example 3); assay type: cell-based
# Description: as §1, §2
# [7] = system: S. typhimurium 8009; test: MIC at salt concentration (Example 3); assay type: cell-based, Salmonella typhimurium
# Description: as §1, §2
# [8] = system: S. typhimurium; test: MIC at salt concentration (Example 3); assay type: cell-based, Salmonella typhimurium
# Description: as §1, §2
# [9] = system: S. typhimurium 8013; test: MIC at salt concentration (Example 3); assay type: cell-based, Salmonella typhimurium
# Description: as §1, §2
# [10] = system: L. monocytogenes; test: Anti-biofilm activity (crystal violet); assay type: cell-based, Listeria monocytogenes
# Description: (§3) To compare the antimicrobial activity of the peptide produced by the method of Example 1, the inventors of the present invention measured the biofilm inhibitory concentration value of the peptide showing no dissociation of bacterial cells.
# (§4) Specifically, the Gram-negative bacteria and Gram-positive bacteria among the bacterial strains described in the above Table 2 were cultured in each medium to a mid-log phase. Then, after dilution to bacterial cell concentration of 5×10^5 cells/100 μl, the cells were inoculated to a microtiter plate (NUNC, USA). Thereafter, myxinidin 1, myxinidin 2, or myxinidin 3 peptides which have been synthesized in Example 1 above was diluted, 1/10 times for each, with physiological saline (PBS) solution in a 96-well plate. After adding the cells to a plate, the cells were cultured for 12 hours at 37° C. After removing the supernatant, the cells were fixed with 100% methanol and reacted for 2 hours with Crystal violet staining solution followed by rinsing for 3 times. Then, after dissolving in 95% ethanol, the absorbance was measured at a wavelength of 595 nm by using a microtiter plate reader (Merck Elisa reader, Germany) to determine the biofilm inhibitory concentration value of each bacterial strain. As a control group, myxinidin as a mother peptide was subjected to the same processes as above and the biofilm inhibitory concentration value of each bacterial strain was obtained.
# [11] = system: S. aureus; test: Anti-biofilm activity (crystal violet); assay type: cell-based, Staphylococcus aureus
# Description: as §3, §4
# [12] = system: P. aeruginosa; test: Anti-biofilm activity (crystal violet); assay type: cell-based, Pseudomonas aeruginosa
# Description: as §3, §4
# [13] = system: L. monocytogenes; test: MIC at salt concentration (Example 3); assay type: cell-based, Listeria monocytogenes
# Description: as §1, §2
# [14] = system: P. aeruginosa 3592; test: MIC at salt concentration (Example 3); assay type: cell-based, Pseudomonas aeruginosa
# Description: as §1, §2
# [15] = system: P. aeruginosa 5018; test: MIC at salt concentration (Example 3); assay type: cell-based, Pseudomonas aeruginosa
# Description: as §1, §2
# [16] = system: P. aeruginosa; test: MIC at salt concentration (Example 3); assay type: cell-based, Pseudomonas aeruginosa
# Description: as §1, §2
# [17] = NaCl (BSA+150 mM sodium chloride)
smiles,measurement,setting,value
"CC[C@H](C)[C@H](NC(=O)[C@H](Cc1c[nH]c2ccccc12)NC(=O)[C@H](CCCCN)NC(=O)[C@@H](NC(=O)[C@@H](N)CCCCN)[C@@H](C)CC)C(=O)N[C@@H](CC(C)C)C(=O)N[C@@H](CCCCN)C(=O)N[C@@H](Cc1ccc(O)cc1)C(=O)N[C@@H](Cc1c[nH]c2ccccc12)C(=O)N[C@@H](CCCCN)C(=O)N[C@@H](Cc1c[nH]c2ccccc12)C(=O)N[C@@H](CO)C(N)=O [Myxinidin 2, KIKWILKYWKWS-NH2] (H-KIKWILKYWKWS-NH2; N-terminus assumed)",Antimicrobial activity (MIC) according to salt concentration,[1]; [17],8
same,Antimicrobial activity (MIC) according to salt concentration,[1]; PBS,8
same,Antimicrobial activity (MIC) according to salt concentration,[1]; SP (10 mM sodium phosphate),4
same,Antimicrobial activity (MIC) according to salt concentration,[2]; [17],>32
same,Antimicrobial activity (MIC) according to salt concentration,[2]; PBS,16
same,Antimicrobial activity (MIC) according to salt concentration,[2]; SP (10 mM sodium phosphate),8
same,Antimicrobial activity (MIC) according to salt concentration,[3]; [17],0.25
same,Antimicrobial activity (MIC) according to salt concentration,[3]; PBS,1
same,Antimicrobial activity (MIC) according to salt concentration,[3]; SP (10 mM sodium phosphate),1
same,Antimicrobial activity (MIC) according to salt concentration,[4]; [17],8
same,Antimicrobial activity (MIC) according to salt concentration,[4]; PBS,2
same,Antimicrobial activity (MIC) according to salt concentration,[4]; SP (10 mM sodium phosphate),2
same,Antimicrobial activity (MIC) according to salt concentration,[5]; [17],8
same,Antimicrobial activity (MIC) according to salt concentration,[5]; PBS,2
same,Antimicrobial activity (MIC) according to salt concentration,[5]; SP (10 mM sodium phosphate),4
same,Antimicrobial activity (MIC) according to salt concentration,[6]; [17],8
same,Antimicrobial activity (MIC) according to salt concentration,[6]; PBS,4
same,Antimicrobial activity (MIC) according to salt concentration,[6]; SP (10 mM sodium phosphate),2
same,Antimicrobial activity (MIC) according to salt concentration,[7]; [17],8
same,Antimicrobial activity (MIC) according to salt concentration,[7]; PBS,4
same,Antimicrobial activity (MIC) according to salt concentration,[7]; SP (10 mM sodium phosphate),4
same,Antimicrobial activity (MIC) according to salt concentration,[8]; [17],2
same,Antimicrobial activity (MIC) according to salt concentration,[8]; PBS,4
same,Antimicrobial activity (MIC) according to salt concentration,[8]; SP (10 mM sodium phosphate),2
same,Antimicrobial activity (MIC) according to salt concentration,[9]; [17],32
same,Antimicrobial activity (MIC) according to salt concentration,[9]; PBS,8
same,Antimicrobial activity (MIC) according to salt concentration,[9]; SP (10 mM sodium phosphate),4
same,Biofilm forming ability,[10]; peptide 0.25 μM,100%
same,Biofilm forming ability,[10]; peptide 0.5 μM,100%
same,Biofilm forming ability,[10]; peptide 1 μM,100%
same,Biofilm forming ability,[10]; peptide 2 μM,100%
same,Biofilm forming ability,[10]; peptide 4 μM,99%
same,Biofilm forming ability,[10]; peptide 8 μM,93%
same,Biofilm forming ability,[10]; peptide 16 μM,45%
same,Biofilm forming ability,[10]; peptide 32 μM,33%
same,Biofilm forming ability,[11]; peptide 0.25 μM,100%
same,Biofilm forming ability,[11]; peptide 0.5 μM,97%
same,Biofilm forming ability,[11]; peptide 1 μM,97%
same,Biofilm forming ability,[11]; peptide 2 μM,97%
same,Biofilm forming ability,[11]; peptide 4 μM,93%
same,Biofilm forming ability,[11]; peptide 8 μM,89%
same,Biofilm forming ability,[11]; peptide 16 μM,24%
same,Biofilm forming ability,[11]; peptide 32 μM,15%
same,Biofilm forming ability,[12]; peptide 0.25 μM,100%
same,Biofilm forming ability,[12]; peptide 0.5 μM,98%
same,Biofilm forming ability,[12]; peptide 1 μM,95%
same,Biofilm forming ability,[12]; peptide 2 μM,83%
same,Biofilm forming ability,[12]; peptide 4 μM,29%
same,Biofilm forming ability,[12]; peptide 8 μM,13%
same,Biofilm forming ability,[12]; peptide 16 μM,5%
same,Biofilm forming ability,[12]; peptide 32 μM,5%
same,Antimicrobial activity (MIC) according to salt concentration,[13]; [17],4
same,Antimicrobial activity (MIC) according to salt concentration,[13]; PBS,8
same,Antimicrobial activity (MIC) according to salt concentration,[13]; SP (10 mM sodium phosphate),8
same,Antimicrobial activity (MIC) according to salt concentration,[14]; [17],16
same,Antimicrobial activity (MIC) according to salt concentration,[14]; PBS,8
same,Antimicrobial activity (MIC) according to salt concentration,[14]; SP (10 mM sodium phosphate),8
same,Antimicrobial activity (MIC) according to salt concentration,[15]; [17],16
same,Antimicrobial activity (MIC) according to salt concentration,[15]; PBS,4
same,Antimicrobial activity (MIC) according to salt concentration,[15]; SP (10 mM sodium phosphate),2
same,Antimicrobial activity (MIC) according to salt concentration,[16]; [17],8
same,Antimicrobial activity (MIC) according to salt concentration,[16]; PBS,4
same,Antimicrobial activity (MIC) according to salt concentration,[16]; SP (10 mM sodium phosphate),8
